Experimental data reported in patent publication US20060241178A1, “Compositions and methods for treating lung cancer” (priority 2002, published 2006).
Like-named read-outs stand apart in the source and are kept apart here.

Assays:
p53 = experiment: Western blot of lung proteins: p53 expression and phosphorylation; assay type: in vivo, A/J mice; conditions: lungs at termination of the bioassay
A549 cells [1] = experiment: Flow cytometry cell cycle analysis / survival of A549 cells; assay type: cell-based, human
Description: Cell Lines: The human lung adenocarcinoma cell line A549 was obtained from the American Type Culture Collection (ATCC) (Bethesda, Md.). […] Cells were grown at 37° C. with 5% CO2.
Reagents: The PEITC was obtained from Aldrich (Milwaukee, Wis.) and its N-acetylcysteine conjugate was synthesized in house by the Organic Synthesis Facility using the method described previously (Kassahun et al., Chem Res Toxicol 1997, 10(11):1228-33). Unless specified otherwise, the A549 cells were treated with 10 or 25 μM of PEITC-NAC. TPA (12-O-tetradecanoylphorbol-13-acetate) was purchased from Sigma (St. Louis, Mo.).
Cell cycle analysis: A549 cells were harvested following 16 and 24 h treatment with various concentrations of PEITC-NAC by fixation in 70% ethanol. Cellular DNA was determined following staining with 1 μg/ml of 4,6-diamidino-2-ephynylindole (DAPI, Molecular Probes, Eugene, Oreg.) dissolved in PBS. Cellular blue fluorescence was measured using the Elite ESP flow cytometer/cell sorter (Coulter, Miami, Fla.) following excitation with a Ni/Cad UV light emitting laser. The data were collected and DNA histograms were deconvoluted using Multicycle software (Phoenix Flow Systems, San Diego, Calif.).

A549/TAM67 cells = experiment: Apoptosis in A549/TAM67 transfectants (morphology, DNA fragmentation, annexin V, PARP Western blot); assay type: cell-based, human; conditions: 25 μM
[2] = system: NNK/B(a)P-induced lung adenomas and adenocarcinomas; conditions: for Adenocarcinoma Incidence (%) / Adenocarcinoma Multiplicity mean ± SD / Adenoma Incidence (%) / Adenoma Multiplicity mean ± SD: preliminary
Description: The test compounds were given in the diet on week 21 after beginning of a weekly dose of a mixture of NNK/B(a)P: 3 μmol each (621 μg NNK and 756 μg B(a)P) in 0.1 ml cottonseed oil for eight weeks (a total of 8 doses) (groups 1 to 10); only vehicle (cottonseed oil) for groups 11 to 15. Animals were then given experimental diet for 20 weeks until week 40. Four mice in groups 1, 2, 4, 6, 8, and 10 (see Table 1) were sacrificed on weeks 20, 38, and 40. The bioassay was terminated on week 52. If sufficient numbers of tumors were developed in mice killed on week 40, the bioassay was terminated at week 40. Tumors (adenomas and carcinomas) were quantified by multiplicity and incidence. At sacrifice, livers and lungs were harvested and the tissues rinsed in autoclaved PBS, stored in labeled foil, and snap frozen in liquid nitrogen. These tissues both tumorous and non-tumorous were processed by histology for biomarker studies (TUNEL, PCNA,p53, […] kinases, etc.). Lungs were examined by histology at termination (52 week or 40 week) for adenomas and carcinomas).
In this study, the potential protective effects of ITCs and ITC-NACs against progression of lung adenomas to malignant tumors were investigated. Lung tumors were induced in A/J mice with 3 μmol B(a)P plus 3 μmol NNK (gavage once/wk, 8 wks); mice were maintained on AIN-76A semi-purified diets. […] Diets containing PEITC (phenethyl ITC) or SFN (sulforaphane), each at 3 mmol/kg and 1.5 mmol/kg diet; PEITC-NAC or SFN-NAC at 8 mmol/kg and 4 mmol/kg diet; and NAC at 8 mmol/kg diet were then provided to groups of 28 mice (high dose) or 20 mice (low dose) during weeks 20 to 40 after initiation. Four mice in each high dose treatment group were killed during weeks 28 and 40 to monitor tumor incidence and progression; lung tissues were used for molecular studies. Remaining mice were killed at 40 weeks for histopathological examination. […] To assess molecular events occurring during the treatments, lung RNA of mice treated with B(a)P+NNK/control diet and B(a)P+NNK/PEITC-NAC high dose diet was examined using a Mouse Cancer Pathway Finder Gene Array.

[3] = Stability of conjugates in AIN-76A diet (methanol extraction, HPLC); assay type: physicochemical; conditions: stored at 4° C. under nitrogen
Description: The ITC conjugates were incorporated (15 μmol/g diet) into AIN-76A diets (5% corn oil) by mixing with dextrose prior to diet preparation. […] After mixing with dextrose, the solvent was removed using a rotary evaporator and further dried using a vacuum pump (2-3 h). Diets were prepared in 1-2 kg batches, and were stored at 4° C. in a container purged with nitrogen. […] Stability was determined by extraction of 0.5 g portions of the diet with 2.5 ml methanol (2×). The methanol extracts were combined and a 1 ml aliquot was filtered using a 0.47 μm syringe filter.

[4] = system: alveolar epithelium cells of lung; experiment: In situ end-labeling (ISEL/TUNEL) of apoptosis in lung sections; assay type: in vivo, A/J mice
[5] = system: c-Jun (AP-1 pathway) and Akt pathway genes; experiment: Mouse Cancer Pathway Finder Gene Array on lung RNA; assay type: in vivo, A/J mice; conditions: PEITC-NAC high dose diet vs control diet
Source text: Some mice also had developed forestomach masses. […] Findings involving other pathways will be presented.

A549 cells [6] = experiment: Cell cycle phase-specific DNA strand breaks (TUNEL) in A549 cells; assay type: cell-based, human
Description: Detection of cell cycle phase-specific DNA strand breaks (“TUNEL”): A549 cells were fixed with 1% formaldehyde for 15 min and then permabilized by post-fixation in 70% ethanol. The presence of in situ DNA strand breaks, a characteristic feature of apoptosis was detected by labeling them with a fluorochrome-conjugated nucleotide in the reaction catalyzed by the terminal deoxynucleotidyl transferase; cellular DNA was counterstained with DAPI. The kit provided by Phoenix Flow Systems (San Diego, Calif.) was used in this assay. This method is also described in detail elsewhere (Gorczyca et al., Internat J. Oncol. 1992, 1:639-648). Green and red fluorescence of cells probed for DNA strand breaks and DNA content was measured using a FACScan flow cytometer (Becton Dickinson, San Jose, Calif.) with standard settings of green (strand breaks) and red (DNA) fluorescence detection. To calculate the percentage of apoptotic cells in respective phases of cell cycle, DNA content frequency histograms were deconvoluted using CELLQuest software.
Apoptosis induced by PEITC-NAC occurs predominantly in dividing cells. […] DNA strand breaks during apoptosis was detected by end-labeling, which was combined with analysis of the cellular DNA content. […]

JNK 1 and 2 = experiment: Western blot of lung total proteins: JNK phosphorylation; assay type: in vivo, A/J mice; conditions: lung tissue 21 days after B(a)P
[7] = high dose (3 or 8 mmol/kg diet)
[8] = low dose (1.5 or 4 mmol/kg diet)

Structure (SMILES): CC(=O)N[C@@H](CSC(=S)NCCc1ccccc1)C(=O)O [PEITC-NAC, N-acetylcysteine Conjugate of phenethyl isothiocyanate]
- phosphorylation of p53 at Ser15 (p53): stronger increase
- cells undergoing apoptosis (sub-G1 peak) (A549 cells [1]; 10 μM for 24 h): 4.5%
- cell survival (A549 cells [1]; 100 μM, 24 h): no lung cells appear to survive
- PARP 89 kD cleavage fragment (A549/TAM67 cells; 3 h): a defined 89 kD band
- cell survival (annexin V-Cy3 / 6-CFDA staining) (A549/TAM67 cells; 20 h): nearly no cell survival
- PARP protein (A549/TAM67 cells; 24 h): completely degraded
- cell survival (morphology, DNA fragmentation) (A549/TAM67 cells; 24 h): most TAM67 transfectants had already died
- incidence of adenocarcinoma/squamous carcinoma ([2]; 8 mmol/kg diet, initiated control group 60%): 20%
- mean numbers of lung adenomas compared with carcinogen control mice ([2]; at termination): decreases were significant
- Adenocarcinoma Incidence (%) [2, 7]: 5/31 (16.1%)
- Adenocarcinoma Multiplicity mean ± SD [2, 7]: 0.52 ± 1.50
- Adenoma Incidence (%) [2, 7]: 30/31 (96.8%)
- Adenoma Multiplicity mean ± SD ([2]; high dose (PEITC, SFN 3 mmol/kg diet; PEITC-NAC, SFN-NAC, NAC 8 mmol/kg diet)): 8.19 ± 3.99
- Adenocarcinoma Incidence (%) [2, 8]: 4/19 (21.05%)
- Adenocarcinoma Multiplicity mean ± SD [2, 8]: 0.53 ± 1.14
- Adenoma Incidence (%) [2, 8]: 17/19 (89.47%)
- Adenoma Multiplicity mean ± SD ([2]; low dose (PEITC, SFN 1.5 mmol/kg diet; PEITC-NAC, SFN-NAC 4 mmol/kg diet)): 7.58 ± 3.88
- malignant tumor multiplicity ([2]; low dose groups, initiated control group 2.1): 0.9 tumors/mouse
- stability in diet [3]: stable for at least one month
- increase in apoptosis, non-tumorous lung tissue ([4]; after 140 days): 2.3 fold
- apoptotic index, fold elevation ([4]; lung tissue at 84 days, before tumors appeared): approximately 2 fold
- c-Jun expression (AP-1 pathway) and Akt pathway genes [5]: up-regulated
- cell cycle distribution (A549 cells [6]; 25 μM, 16 h): a substantial portion of the cells accumulate in G2M phase
- apoptotic cells by DNA strand break labeling (A549 cells [6]; 50 μM, 24 h): a distinct population of apoptotic cells
- JNK 1 (p46) phosphorylation level (JNK 1 and 2): increase
- JNK 2 (p54) phosphorylation (JNK 1 and 2): only slightly induced
